Drawing on patent publication US20030165570A1, “Pharmaceutical compositions containing micronized bicyclic drugs” (SmithKline Beecham p.l.c., priority 1997, published 2003), this text covers USP solubility classification and aqueous solubility for 1 compound.

Converted amounts (≈) assume the structure as drawn.

The data set can be described thus: Aqueous solubility. The format is physicochemical. An excerpt: The compounds used in this invention have a very low solubility in water.

For orientation: aqueous solubility means how much of the substance goes into solution per volume. In the case of `CC(=O)c1ccc2c(c1)[C@H](NC(=O)c1ccc(F)cc1)[C@@H](O)C(C)(C)O2` (relative stereo) [Compound 1, trans-6-acetyl-4S-(4-fluorobenzoylamino)-3,4-dihydro-2,2-dimethyl-2H-1-benzopyran-3R-ol], the USP solubility classification entry was “virtually insoluble” and the aqueous solubility worked out at 8 µg/mL (≈ 22.4 µM).
